Test results: PubChem BioAssay (NCI)
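How tested: cells in 96-well plates exposed to compound for 48 hours at five concentrations. The concentration for 50% growth inhibition is given as GI50. TGI denotes the concentration required for complete inhibition of growth.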

Assays:
Experiment in all cases: NCI-60 cell line screen, 48 h
A498 renal = test system: A498 renal
A549 NSCLC = test system: A549 NSCLC
ACHN renal = test system: ACHN renal
BT-549 breast = test system: BT-549 breast
CAKI-1 renal = test system: CAKI-1 renal
CCRF-CEM leukemia = test system: CCRF-CEM leukemia
COLO 205 colon = test system: COLO 205 colon
DU-145 prostate = test system: DU-145 prostate
EKVX NSCLC = test system: EKVX NSCLC
HCC-2998 colon = test system: HCC-2998 colon
HCT-116 colon = test system: HCT-116 colon
HCT-15 colon = test system: HCT-15 colon
HL-60(TB) leukemia = test system: HL-60(TB) leukemia
HOP-62 NSCLC = test system: HOP-62 NSCLC
HOP-92 NSCLC = test system: HOP-92 NSCLC
HS 578T breast = test system: HS 578T breast
HT29 colon = test system: HT29 colon
IGROV1 ovarian = test system: IGROV1 ovarian
K-562 leukemia = test system: K-562 leukemia
KM12 colon = test system: KM12 colon
LOX IMVI melanoma = test system: LOX IMVI melanoma
M14 melanoma = test system: M14 melanoma
MALME-3M melanoma = test system: MALME-3M melanoma
MCF7 breast = test system: MCF7 breast
MDA-MB-231 breast = test system: MDA-MB-231 breast
MDA-MB-435 = test system: MDA-MB-435
MOLT-4 leukemia = test system: MOLT-4 leukemia
NCI-H226 lung = test system: NCI-H226 lung
NCI-H23 lung = test system: NCI-H23 lung
NCI-H460 lung = test system: NCI-H460 lung
NCI-H522 lung = test system: NCI-H522 lung
NCI/ADR-RES ovarian = test system: NCI/ADR-RES ovarian
OVCAR-3 ovarian = test system: OVCAR-3 ovarian
OVCAR-5 ovarian = test system: OVCAR-5 ovarian
OVCAR-8 ovarian = test system: OVCAR-8 ovarian
PC-3 prostate = test system: PC-3 prostate
RPMI-8226 leukemia = test system: RPMI-8226 leukemia
RXF 393 renal = test system: RXF 393 renal
SF-268 CNS = test system: SF-268 CNS
SF-295 CNS = test system: SF-295 CNS
SF-539 CNS = test system: SF-539 CNS
SK-MEL-2 melanoma = test system: SK-MEL-2 melanoma
SK-MEL-28 melanoma = test system: SK-MEL-28 melanoma
SK-MEL-5 melanoma = test system: SK-MEL-5 melanoma
SN12C renal = test system: SN12C renal
SNB-19 CNS = test system: SNB-19 CNS
SNB-75 CNS = test system: SNB-75 CNS
SR leukemia = test system: SR leukemia
SW-620 colon = test system: SW-620 colon
T-47D breast = test system: T-47D breast
TK-10 renal = test system: TK-10 renal
U251 CNS = test system: U251 CNS
UACC-257 melanoma = test system: UACC-257 melanoma
UACC-62 melanoma = test system: UACC-62 melanoma
UO-31 renal = test system: UO-31 renal

Cc1cc(N(CCCl)CCCl)ccc1/C=N\NC(=O)c1cccnc1
GI50 (A498 renal): 1.42 µM | TGI (A498 renal): 2.92 µM | GI50 (A549 NSCLC): 21 µM | TGI (A549 NSCLC): > 100 µM | GI50 (ACHN renal): 10.7 µM | TGI (ACHN renal): > 100 µM | GI50 (BT-549 breast): 19.4 µM | TGI (BT-549 breast): 61.6 µM | GI50 (CAKI-1 renal): 5.46 µM | TGI (CAKI-1 renal): 45 µM | GI50 (CCRF-CEM leukemia): 9.23 µM | TGI (CCRF-CEM leukemia): > 100 µM | GI50 (COLO 205 colon): 19.1 µM | TGI (COLO 205 colon): 85.3 µM | GI50 (DU-145 prostate): 15.1 µM | TGI (DU-145 prostate): 99 µM | GI50 (EKVX NSCLC): 48.8 µM | TGI (EKVX NSCLC): > 100 µM | GI50 (HCC-2998 colon): 25 µM | TGI (HCC-2998 colon): 97.6 µM | GI50 (HCT-116 colon): 26.9 µM | TGI (HCT-116 colon): > 100 µM | GI50 (HCT-15 colon): 21.9 µM | TGI (HCT-15 colon): > 100 µM | GI50 (HL-60(TB) leukemia): 4.3 µM | TGI (HL-60(TB) leukemia): 26.4 µM | GI50 (HOP-62 NSCLC): 19.5 µM | TGI (HOP-62 NSCLC): > 100 µM | GI50 (HOP-92 NSCLC): 17.3 µM | TGI (HOP-92 NSCLC): 59.3 µM | GI50 (HS 578T breast): 48.6 µM | TGI (HS 578T breast): > 100 µM | GI50 (HT29 colon): 30.3 µM | TGI (HT29 colon): > 100 µM | GI50 (IGROV1 ovarian): 35.9 µM | TGI (IGROV1 ovarian): > 100 µM | GI50 (K-562 leukemia): 20.1 µM | TGI (K-562 leukemia): > 100 µM | GI50 (KM12 colon): 34.4 µM | TGI (KM12 colon): > 100 µM | GI50 (LOX IMVI melanoma): 15.6 µM | TGI (LOX IMVI melanoma): 99.4 µM | GI50 (M14 melanoma): 34.4 µM | TGI (M14 melanoma): > 100 µM | GI50 (MALME-3M melanoma): 26.2 µM | TGI (MALME-3M melanoma): 83.7 µM | GI50 (MCF7 breast): 16.8 µM | TGI (MCF7 breast): > 100 µM | GI50 (MDA-MB-231 breast): 29.3 µM | TGI (MDA-MB-231 breast): > 100 µM | GI50 (MDA-MB-435): 24.6 µM | TGI (MDA-MB-435): > 100 µM | GI50 (MOLT-4 leukemia): 8.19 µM | TGI (MOLT-4 leukemia): 39.2 µM | GI50 (NCI-H226 lung): 1.11 µM | TGI (NCI-H226 lung): 2.8 µM | GI50 (NCI-H23 lung): 18.4 µM | TGI (NCI-H23 lung): > 100 µM | GI50 (NCI-H460 lung): 0.685 µM | TGI (NCI-H460 lung): 23.3 µM | GI50 (NCI-H522 lung): 15.2 µM | TGI (NCI-H522 lung): 32.3 µM | GI50 (NCI/ADR-RES ovarian): 13.7 µM | TGI (NCI/ADR-RES ovarian): 48.7 µM | GI50 (OVCAR-3 ovarian): 23.1 µM | TGI (OVCAR-3 ovarian): 79.3 µM | GI50 (OVCAR-5 ovarian): 12 µM | TGI (OVCAR-5 ovarian): 60 µM | GI50 (OVCAR-8 ovarian): 25.9 µM | TGI (OVCAR-8 ovarian): > 100 µM | GI50 (PC-3 prostate): 22.7 µM | TGI (PC-3 prostate): > 100 µM | GI50 (RPMI-8226 leukemia): 20.1 µM | TGI (RPMI-8226 leukemia): 59 µM | GI50 (RXF 393 renal): 19.2 µM | TGI (RXF 393 renal): 48.6 µM | GI50 (SF-268 CNS): 25.1 µM | TGI (SF-268 CNS): > 100 µM | GI50 (SF-295 CNS): 4.17 µM | TGI (SF-295 CNS): 28.3 µM | GI50 (SF-539 CNS): 13.9 µM | TGI (SF-539 CNS): > 100 µM | GI50 (SK-MEL-2 melanoma): 27.3 µM | TGI (SK-MEL-2 melanoma): 59 µM | GI50 (SK-MEL-28 melanoma): 43.4 µM | TGI (SK-MEL-28 melanoma): > 100 µM | GI50 (SK-MEL-5 melanoma): 15.7 µM | TGI (SK-MEL-5 melanoma): 39.1 µM | GI50 (SN12C renal): 22.4 µM | TGI (SN12C renal): > 100 µM | GI50 (SNB-19 CNS): > 100 µM | TGI (SNB-19 CNS): > 100 µM | GI50 (SNB-75 CNS): 25.5 µM | TGI (SNB-75 CNS): > 100 µM | GI50 (SR leukemia): 4.81 µM | TGI (SR leukemia): > 100 µM | GI50 (SW-620 colon): 30.3 µM | TGI (SW-620 colon): > 100 µM | GI50 (T-47D breast): 6.41 µM | TGI (T-47D breast): 50.2 µM | GI50 (TK-10 renal): 11.2 µM | TGI (TK-10 renal): 36.2 µM | GI50 (U251 CNS): 21.6 µM | TGI (U251 CNS): > 100 µM | GI50 (UACC-257 melanoma): 6.96 µM | TGI (UACC-257 melanoma): 34.9 µM | GI50 (UACC-62 melanoma): 4.51 µM | TGI (UACC-62 melanoma): 25.2 µM | GI50 (UO-31 renal): 21.6 µM | TGI (UO-31 renal): 82.7 µM
